Reference: patent US20230277698A1, “SILICON-CONTAINING LIGAND COMPOUNDS” (Technische Universität München, priority 2020, published 2023)

Experiments:
[1] = Octanol-water partition coefficient; assay type: physicochemical; settings: 177Lu-labelled; n-octanol/PBS pH 7.4; n=6
Procedure: Approximately 1 MBq of the labelled tracer was dissolved in 1 mL of a 1:1 mixture (v/v) of PBS (pH 7.4) and n-octanol in a reaction vial (1.5 mL). After vigorous mixing of the suspension for 3 minutes at room temperature, the vial was centrifuged at 15000 g for 3 minutes (Biofuge 15, Heraeus Sepatech, Osterode, Germany) and 100 μL aliquots of both layers were measured in a gamma counter. The experiment was repeated at least six times.
FIG. 5 and the following table summarize log PO/W values of the synthesized radiolabeled ^177Lu-PSMA ligand compounds and ^177Lu-references (n=6).

[2] = biological target: human serum albumin (HSA) (Homo sapiens, UniProt P02768); assay: HSA binding by high performance affinity chromatography (HiPAC); assay type: in vitro ADME; parameters: purchased Daicel, Tokyo, Japan H13H-2433; settings: lutetium-complexed; Chiralpak HSA column
Sequence of human serum albumin (HSA) (P02768 25-609): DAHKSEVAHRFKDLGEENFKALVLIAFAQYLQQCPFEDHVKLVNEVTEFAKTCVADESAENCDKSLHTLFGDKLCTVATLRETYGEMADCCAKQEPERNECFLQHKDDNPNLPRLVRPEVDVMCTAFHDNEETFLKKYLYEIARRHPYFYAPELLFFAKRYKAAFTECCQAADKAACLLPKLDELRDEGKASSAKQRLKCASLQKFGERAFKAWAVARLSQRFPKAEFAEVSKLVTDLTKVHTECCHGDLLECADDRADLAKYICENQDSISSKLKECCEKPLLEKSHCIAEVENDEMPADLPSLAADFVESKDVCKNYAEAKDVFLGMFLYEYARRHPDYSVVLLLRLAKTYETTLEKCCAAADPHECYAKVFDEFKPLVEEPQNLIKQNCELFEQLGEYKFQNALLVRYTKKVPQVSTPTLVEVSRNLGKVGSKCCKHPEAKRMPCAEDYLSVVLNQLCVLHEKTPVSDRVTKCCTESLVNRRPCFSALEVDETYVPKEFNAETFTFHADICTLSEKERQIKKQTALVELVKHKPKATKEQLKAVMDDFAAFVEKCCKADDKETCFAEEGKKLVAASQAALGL
Procedure: HSA binding of the PSMA-addressing ligands was determined according to a previously published procedure via HPLC (Valko, K.; Nunhuck, S.; Bevan, C.; Abraham, M. H.; Reynolds, D. P., Fast gradient HPLC method to determine compounds binding to human serum albumin. Relationships with octanol/water and immobilized artificial membrane lipophilicity. J Pharm Sci. 2003, 92, 2236-2248). A Chiralpak HSA column (50×3 mm, 5 μm, H13H-2433, Daicel, Tokyo, Japan) was used at a constant flow rate of 0.5 mL/min at rt. Mobile phase A was a freshly prepared 50 mM aqueous solution of NH4OAc (pH 6.9) and mobile phase B was isopropanol (HPLC grade, VWR). The applied gradient for all experiments was 100% A (0 to 3 min), followed by 80% A (3 to 40 min). Prior to the experiment, the column was calibrated using nine reference substances with a HSA binding, known from literature, in the range of 13 to 99% (Valko, K.; Nunhuck, S.; Bevan, C.; Abraham, M. H.; Reynolds, D. P., J Pharm Sci. 2003, 92, 2236-2248; Yamazaki, K.; Kanaoka, M., Computational prediction of the plasma protein-binding percent of diverse pharmaceutical compounds. J Pharm Sci. 2004, 93, 1480-1494). All substances, including the examined PSMA ligands, were dissolved in a 1:1 mixture (v/v) of isopropanol and a 50 mM aqueous solution of NH4OAc (pH 6.9) with a final concentration of 0.5 mg/mL. Non-linear regression was established with the OriginPro 2016G software (Northampton, United States).
FIG. 1 is an exemplary sigmoidal plot, showing the correlation between human serum albumin (HSA) binding of selected reference substances and retention time (tR). The underlying values of HSA binding also shown in the corresponding table and were obtained from literature (Valko, K.; Nunhuck, S.; Bevan, C.; Abraham, M. H.; Reynolds, D. P., J Pharm Sci. 2003, 92, 2236-2248; Yamazaki, K.; Kanaoka, M., J Pharm Sci. 2004, 93, 1480-1494). Log tR: logarithmic value of experimentally determined retention time. Log K HSA: logarithmic value of HSA binding values.

[3] = test system: LNCaP tumor-bearing CB17-SCID mice; assay: Biodistribution studies 24 h p.i.; assay type: in vivo; settings: 177Lu-labelled, mean±SD, n=4-5; for biodistribution: tumor: LNCaP xenograft; for biodistribution: blood: i.v. tail vein
Procedure: All animal experiments were conducted in accordance with general animal welfare regulations in Germany (German animal protection act, as amended on 18 May 2018, Art. 141 G v. 29.3.2017|626, approval no. 55.2-1-54-2532-71-13) and the institutional guidelines for the care and use of animals. To establish tumor xenografts, LNCaP cells (approx. 10^7 cells) were suspended in 200 μL of a 1:1 mixture (v/v) of DMEM F-12 and Matrigel (BD Biosciences, Germany), and inoculated subcutaneously onto the right shoulder of 6-8 weeks old CB17-SCID mice (Charles River, Sulzfeld, Germany). Mice were used for experiments when tumors had grown to a diameter of 5-10 mm (3-6 weeks after inoculation).
Approximately 5-10 MBq (0.1-0.2 nmol) of the radioactive-labelled PSMA inhibitors were injected into the tail vein of LNCaP tumor-bearing male CB-17 SCID mice and sacrificed after 24 h post injection. Selected organs were removed, weighted and measured in a γ-counter.
FIG. 10 and the following table show the biodistribution data 24 h p.i. of ^177Lu-labeled compounds in LNCaP tumor-bearing CB17-SCID mice. Data are expressed as mean±SD (n=4-5).

Row | Structure (SMILES) | Log PO/W [1] | HSA-binding HiPAC [2] [%] | biodistribution: tumor [3] [% ID/g] | biodistribution: blood [3] [% ID/g] | biodistribution: adrenals [3] [% ID/g] | biodistribution: bone [3] [% ID/g] | biodistribution: heart [3] [% ID/g] | biodistribution: intestine [3] [% ID/g] | biodistribution: kidneys [3] [% ID/g] | biodistribution: liver [3] [% ID/g] | biodistribution: lung [3] [% ID/g] | biodistribution: muscle [3] [% ID/g] | biodistribution: pancreas [3] [% ID/g] | biodistribution: parotis [3] [% ID/g] | biodistribution: spleen [3] [% ID/g] | biodistribution: stomach [3] [% ID/g] | biodistribution: submandibularis [3] [% ID/g]
1 | CC(C)(C)[Si](O)(c1ccc(C(=O)NC[C@@H](NC(=O)CC[C@@H](C(=O)O)N2CCN(CC(=O)O)CCN(CC(=O)O)CCN(CC(=O)O)CC2)C(=O)NCC(=O)N[C@@H](CCCCNC(=O)CCC(=O)NCCC[C@@H](NC(=O)CC[C@H](NC(=O)N[C@@H](CCC(=O)O)C(=O)O)C(=O)O)C(=O)O)C(=O)O)cc1)C(C)(C)C [E102-SiOH] | −4.14 ± 0.08 | 95.1 | 4.4 ± 0.6 | 0.002 ± 0.001 | 0.05 ± 0.03 | 0.03 ± 0.01 | 0.02 ± 0.02 | 0.43 ± 0.31 | 3.3 ± 2.9 | 0.05 ± 0.02 | 0.04 ± 0.02 | 0.001 ± 0.001 | 0.01 ± 0.01 | 0.02 ± 0.01 | 0.13 ± 0.10 | 0.08 ± 0.07 | 0.01 ± 0.01
2 | O=C(O)CC[C@H](NC(=O)N[C@@H](CCCCNC(=O)[C@H](Cc1ccc2ccccc2c1)NC(=O)[C@H]1CC[C@H](CNC(=O)CN2CCN(CC(=O)O)CCN(CC(=O)O)CCN(CC(=O)O)CC2)CC1)C(=O)O)C(=O)O [PSMA-617, reference compound] | −4.1 ± 0.1 | 74.7 | 7.5 ± 0.9 | 0.006 ± 0.01 | 0.13 ± 0.12 | 0.03 ± 0.01 | 0.01 ± 0.01 | 0.12 ± 0.08 | 1.4 ± 0.4 | 0.12 ± 0.06 | 0.04 ± 0.01 | 0.01 ± 0.01 | 0.01 ± 0.01 |  | 0.08 ± 0.01 | 0.02 ± 0.01 | 
3 | CC(C)(C)[Si](O)(c1ccc(C(=O)NC[C@@H](NC(=O)CCCCCNC(=O)CCCNC(=O)CC[C@@H](NC(=O)CCC(NC(=O)N[C@@H](CCC(=O)O)C(=O)O)C(=O)O)C(=O)O)C(=O)NCC(=O)N[C@@H](CCCCNC(=O)CC[C@@H](C(=O)O)N2CCN(CC(=O)O)CCN(CC(=O)O)CCN(CC(=O)O)CC2)C(=O)O)cc1)C(C)(C)C (stereo partly drawn) [E104-SiOH] | −3.77 ± 0.16 | 85.8 |  |  |  |  |  |  |  |  |  |  |  |  |  |  | 
4 | CC(C)(C)[Si](F)(c1ccc(C(=O)NC[C@@H](NC(=O)CC[C@@H](C(=O)O)N2CCN(CC(=O)O)CCN(CC(=O)O)CCN(CC(=O)O)CC2)C(=O)N[C@H](CCCCNC(=O)CCC(=O)NCCC[C@@H](NC(=O)CC[C@H](NC(=O)N[C@@H](CCC(=O)O)C(=O)O)C(=O)O)C(=O)O)C(=O)O)cc1)C(C)(C)C [rhPSMA-7.3, reference compound] | −3.8 ± 0.1 | 98.5 | 7.6 ± 0.5 | 0.004 ± 0.002 |  | 0.02 ± 0.01 | 0.03 ± 0.01 | 0.12 ± 0.03 | 13.2 ± 6.7 | 0.22 ± 0.03 | 0.06 ± 0.02 | 0.012 ± 0.004 | 0.02 ± 0.01 | 0.22 ± 0.16 | 0.51 ± 0.22 | 0.05 ± 0.01 | 0.05 ± 0.02
5 | CC(C)(C)[Si](O)(c1ccc(C[N+](C)(C)CC(=O)NCCC[C@@H](NC(=O)CC[C@@H](C(=O)O)N2CCN(CC(=O)O)CCN(CC(=O)O)CCN(CC(=O)O)CC2)C(=O)NCCCCCC(=O)NCCC[C@@H](NC(=O)CC[C@H](NC(=O)N[C@@H](CCC(=O)O)C(=O)O)C(=O)O)C(=O)O)cc1)C(C)(C)C [P110-SiOH] | −4.11 ± 0.07 | 31.3 |  |  |  |  |  |  |  |  |  |  |  |  |  |  | 
6 | CC(C)(C)[Si](O)(c1ccc(C(=O)N[C@H](CCC(=O)NC[C@@H](NC(=O)CC[C@@H](C(=O)O)N2CCN(CC(=O)O)CCN(CC(=O)O)CCN(CC(=O)O)CC2)C(=O)NCCCCCC(=O)NCCC[C@@H](NC(=O)CC[C@H](NC(=O)N[C@@H](CCC(=O)O)C(=O)O)C(=O)O)C(=O)O)C(=O)O)cc1)C(C)(C)C [P105-SiOH] | −3.94 ± 0.07 | 97.8 | 6.3 ± 2.1 | 0.004 ± 0.003 | 0.12 ± 0.01 | 0.02 ± 0.01 | 0.01 ± 0.01 | 0.08 ± 0.05 | 4.2 ± 2.5 | 0.37 ± 0.07 | 0.04 ± 0.01 | 0.004 ± 0.001 | 0.01 ± 0.01 | 0.07 ± 0.03 | 0.31 ± 0.10 | 0.02 ± 0.01 | 0.03 ± 0.01
7 | CC(C)(C)[Si](F)(c1ccc(C(=O)NC[C@@H](NC(=O)CN2CCN(CC(=O)O)CCN(CC(=O)O)CCN(CC(=O)O)CC2)C(=O)N[C@H](CCCCNC(=O)CCC(=O)NCCC[C@@H](NC(=O)CC[C@H](NC(=O)N[C@@H](CCC(=O)O)C(=O)O)C(=O)O)C(=O)O)C(=O)O)cc1)C(C)(C)C [rhPSMA-10, reference compound] | −3.6 ± 0.1 | 94.0 | 10.2 ± 2.8 | 0.004 ± 0.001 | 0.09 ± 0.06 | 0.02 ± 0.01 | 0.03 ± 0.01 | 0.11 ± 0.06 | 4.1 ± 2.3 | 0.28 ± 0.13 | 0.05 ± 0.01 | 0.010 ± 0.003 | 0.02 ± 0.01 |  | 0.22 ± 0.11 | 0.04 ± 0.01 | 
